From US9585886B2, “ASK1 inhibiting pyrrolopyrimidine derivatives” (CALCHAN LIMITED, priority 2010, dated 2017)

Assays:
[1] = test system: CCI-induced mechanical allodynia; settings: rat CCI model
[2] = test system: FCA-induced inflammatory mechanical hypersensitivity
[3] = target: T1, human ASK1 kinase (Homo sapiens, UniProt Q99683); assay: Determination of ASK1 inhibitor activity (IMAP FP assay of example 52 or AlphaLISA assay of example 53)
T1 sequence (Q99683 1-1374): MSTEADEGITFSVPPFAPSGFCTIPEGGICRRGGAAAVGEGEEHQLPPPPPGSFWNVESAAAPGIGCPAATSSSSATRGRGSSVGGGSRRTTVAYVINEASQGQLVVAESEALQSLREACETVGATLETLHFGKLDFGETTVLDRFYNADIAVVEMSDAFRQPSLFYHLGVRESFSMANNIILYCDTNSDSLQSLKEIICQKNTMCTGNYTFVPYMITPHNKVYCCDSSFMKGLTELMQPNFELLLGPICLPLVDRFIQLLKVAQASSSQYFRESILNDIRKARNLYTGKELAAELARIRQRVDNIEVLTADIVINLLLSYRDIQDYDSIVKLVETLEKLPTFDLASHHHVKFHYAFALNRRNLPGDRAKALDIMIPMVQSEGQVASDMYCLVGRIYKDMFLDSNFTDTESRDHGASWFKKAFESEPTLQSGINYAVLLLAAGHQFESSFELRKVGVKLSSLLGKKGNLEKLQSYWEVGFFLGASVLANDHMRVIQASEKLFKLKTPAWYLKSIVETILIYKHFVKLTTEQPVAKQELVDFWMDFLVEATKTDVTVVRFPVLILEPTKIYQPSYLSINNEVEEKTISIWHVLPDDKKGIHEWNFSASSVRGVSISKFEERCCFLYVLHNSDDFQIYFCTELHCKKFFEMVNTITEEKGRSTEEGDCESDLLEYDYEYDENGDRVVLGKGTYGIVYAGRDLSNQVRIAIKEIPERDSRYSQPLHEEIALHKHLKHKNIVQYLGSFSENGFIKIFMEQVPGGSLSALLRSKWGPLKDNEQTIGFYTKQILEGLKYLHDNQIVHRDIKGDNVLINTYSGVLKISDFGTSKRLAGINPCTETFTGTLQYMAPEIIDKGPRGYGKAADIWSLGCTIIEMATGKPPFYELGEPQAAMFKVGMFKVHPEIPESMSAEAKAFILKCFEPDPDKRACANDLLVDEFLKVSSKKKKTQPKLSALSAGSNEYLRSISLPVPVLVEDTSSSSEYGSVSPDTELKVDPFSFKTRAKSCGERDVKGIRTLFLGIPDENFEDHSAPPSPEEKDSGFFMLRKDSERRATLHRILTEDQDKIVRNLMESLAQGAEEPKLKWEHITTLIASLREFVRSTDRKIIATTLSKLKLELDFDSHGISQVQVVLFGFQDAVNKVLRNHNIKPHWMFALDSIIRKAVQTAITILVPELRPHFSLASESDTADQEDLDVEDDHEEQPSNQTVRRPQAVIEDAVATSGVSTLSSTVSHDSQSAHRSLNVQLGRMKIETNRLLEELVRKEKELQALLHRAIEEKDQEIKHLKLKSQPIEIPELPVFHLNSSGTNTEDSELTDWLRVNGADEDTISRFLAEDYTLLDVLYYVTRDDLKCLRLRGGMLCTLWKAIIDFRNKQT

IC50 [3]	Compound	effect on mechanical allodynia caused by nerve injury in the CCI model [1]	effect on inflammatory mechanical hypersensitivity caused by FCA (weightbearing) ([2]; dosed orally 24 hours after FCA injection, at 30 mg/kg)	effect on inflammatory mechanical hypersensitivity (FIG. 2, weightbearing) ([2]; rats, 3 mg/kg po and 30 mg/kg po, 24 hours after intraplantar FCA, measured 1 hour after dosing)
	Cc1c[nH]c2ncnc(N3CCC(NC(=O)c4ccccc4)CC3)c12 [Example 17]	partially reversed the mechanical allodynia	partially reverse the inflammatory mechanical hypersensitivity	reverses inflammatory mechanical hypersensitivity
25.1 µM	O=C(NC1CCN(c2nc[nH]c3nccc2-3)CC1)c1ccc(N2CCCC2)cc1 [4-(1-pyrrolidinyl)-N-[1-(1H-pyrrolo[2,3-d]pyrimidin-4-yl)-4-piperidinyl]benzamide]			
